Test results reported in patent publication US20260191200A1, “COMPOUNDS AND COMPOSITIONS HAVING KNOCK-DOWN OR BLOOD FEED INHIBITION ACTIVITY AGAINST INSECT PESTS” (priority 2015, published 2026).

What was measured:
Type in all cases: in vivo
[1] = system: Anopheles stephensi; test: WHOPES tunnel test with Hemotek membrane feeding device (B11-B14)
Protocol: (§1) The following tests are based on the “WHOPES tunnel tests” (described at http://apps.who.int/iris/bitstream/10665/80270/1/9789241505277_eng.pdf)
(§2) For examples B11-B15 the WHOPES tunnel test procedure was followed, except that live guniea pig baits were replaced with a Hemotek membrane feeding device, filled with blood and kept constant at 37° C. to mimic a human host.
For examples B11-B14, the tunnel test was conducted with Anopheles stephensi;
(§3) All tests were done under standardised laboratory controlled conditions (27° C.+2° C. under subdued light). The tunnel apparatus was a 60×30×30 cm glass case open at each end and the floor was lined with wet blue roll in order to maintain humidity. A 30×30×30 cm cage, covered in untreated netting, was placed at the release end. The test nets were cut to 25×25 cm squares and fitted into cardboard frames that allow a 20×20 cm area to be exposed. Nine holes, 1 cm in diameter, were made in the netting in the pattern specified in the WHOPES test. The frames were then fitted into the tunnel one third of the way down its length. A Hemotek device, filled with blood and kept constant at 37° C. to mimic a human host, was placed in the smaller area of the glass tunnel behind the test netting, and the end of the tunnel closed with a netting screen. A human sat at the Hemotek end of the tunnels for the duration of the test. At the start of the test, 100 female mosquitoes (non-blood fed, aged 5-8 days) were introduced into the cage. Mosquitoes are free to fly in the tunnel but have to make contact with the piece of netting and locate the holes in it before passing through to reach the bait.
(§4) After 7 hours the mosquitoes were counted in each section of the tunnel. The number of mosquitoes knocked down and blood fed were recorded. Blood-feeding inhibition was assessed by comparing the proportion of blood-fed females (alive or dead) in treated and control tests. Four tunnels were run simultaneously each day, with one control containing untreated netting included with all runs. Three replicates were carried out per treatment. In case of multiple tests, the mean value is reported.

[2] = system: non-blood fed adult female mosquitoes; test: Bottle assay based on the CDC bottle assay (B21, B22); conditions: Table B21; rate not given
Protocol: Based on the “CDC bottle assay” (described at http://www.cdc.gov/malaria/resources/pdf/fsp/ir_manual/ir_cdc_bioassay_en.pdf) 1 ml of ethanol containing a test compound at a defined concentration was added to a 250 ml glass bottle and the bottles were placed on a rolling table to coat the inner surfaces as the solvent evaporated. Once dry, twenty five non-blood fed adult female mosquitoes of the appropriate species and strains (each three day old) were aspirated from the stock culture and gently blown into the exposure bottles. The lid of the bottle was replaced and the bottle placed upright out of direct sun light under standard culture conditions, nominally 28° C. and 60-80% relative humidity.
A stopwatch was started, and the assessment of the knock-down were made after 15 mins and 60 minutes. A mosquito was said to be knocked down if it was unable to stand, following the CDC definition. The bottles were replaced in an upright position when not being assessed.
After one hour the mosquitoes were carefully removed from the bottle with an aspirator and placed in a recovery cup. The mosquitoes were supplied with a 10% sucrose solution on a cotton wool bung, and stored under culture conditions. Assessments of the mortality were made after 24 hours and 48 hours (B21).
Each treatment was replicated a minimum of four times, with the mean knockdown or mortality recorded. In each study, a set of bottles was infested with a known insecticide susceptible strain of mosquitoes from the same genera as the resistant strains.

[3] = system: Anopheles stephensi; test: twelve well tissue culture plate deposit test, knockdown (B23); conditions: 1 h, read-out: Anopheles stephensi 1 hour % KD
Protocol: (§5) The individual wells of a twelve (12) well tissue culture plates were treated with 100 μl of an ethanol solution containing a test compound at a defined concentration. Once the deposits were dry, five non-blood fed adult female Aedes aegypti or Anopheles stephensi (between two to five day old) were added to each well, and sustained with a 10% sucrose solution in a cotton wool plug. Assessment of the knockdown after 1 hour was carried out. Where multiple replicates of a treatment have been undertaken, the mean of those replicates is reported.

[4] = system: Aedes aegypti; test: as above; conditions: 1 h, read-out: Aedes aegypti 1 hour % KD
Protocol: as §5

[5] = system: Anopheles stephensi; test: six well tissue culture plate deposit test, knockdown and mortality (Examples B1-B10); conditions: for knockdown after 1 hour: Alone or Plus Compound (1.3); for 24 hr mort / 48 hr mort / KD: Table B4, alone or +Comp. (1.3); for KD: knockdown after 1 hour
Protocol: The individual wells of six (6) well tissue culture plates were treated with 250 μl of an ethanol solution containing a test compound at a defined concentration. Once the deposits were dry, ten non-blood fed adult female Anopheles stephensi (between two to five day old) were added to each well, and sustained with a 10% sucrose solution in a cotton wool plug. Assessment of the knockdown after 1 hour (Tables B1-B10), and mortality after 24 and 48 hours (Tables B1-B4) was carried out.
In case of multiple tests, the mean value is reported.

[6] = system: Anopheles gambiae, resistant strain AKRON; test: WHOPES tunnel test with Hemotek membrane feeding device (B15); conditions: Table B15
Protocol: as §1, §2
For example B15, the tunnel test was conducted with Anopheles gambiae, resistant strain AKRON.
(§6) The commercial standard Olyset nets used in certain examples are 2% w/w permethrin (approx. 1000 mg/m2, although not all of that is available on the surface at any one time, as a good proportion is in the polymer).
All tests were done under standardised laboratory controlled conditions (27° C.+2° C. under subdued light). The tunnel apparatus was a 60×30×30 cm glass case open at each end and the floor was lined with wet blue roll in order to maintain humidity. A 30×30×30 cm cage, covered in untreated netting, was placed at the release end. The test nets were cut to 25×25 cm squares and fitted into cardboard frames that allow a 20×20 cm area to be exposed. […]
After 7 hours the mosquitoes were counted in each section of the tunnel. The number of mosquitoes knocked down and blood fed were recorded. Blood-feeding inhibition was assessed by comparing the proportion of blood-fed females (alive or dead) in treated and control tests. […]

[7] = system: Anopheles gambiae Tiassale field strain; test: WHOPES tunnel test with live guinea pig baits, Cote d′Ivoire (B20); conditions: Table B20; for Blood fed: number of mosquitoes
Protocol: as §1
(§7) For examples B16-B20, the WHOPES tunnel test procedure was followed with live guniea pig baits wherein B16-B18 were conduced in Burkina Faso with Anopheles gambiae Kisumu, Anopheles coluzzii VK7 lab strain and Anopheles gambiae s.l. VK field strain, respectively; and B19-B20 were conducted in Cote d′Ivoire with Anopheles gambiae Kisumu and Anopheles gambiae Tiassale field strain, respectively.
as §6, §3, §4

[8] = system: Anopheles gambiae Kisumu; test: WHOPES tunnel test with live guinea pig baits, Burkina Faso (B16); conditions: Table B16; for Blood fed: number of mosquitoes
Protocol: as §1, §7, §6, §3, §4

[9] = system: Anopheles gambiae s.l. VK field strain; test: WHOPES tunnel test with live guinea pig baits, Burkina Faso (B18); conditions: Table B18; for Blood fed: number of mosquitoes
Protocol: as §1, §7, §6, §3, §4

[10] = system: Anopheles gambiae Kisumu; test: WHOPES tunnel test with live guinea pig baits, Cote d′Ivoire (B19); conditions: Table B19; for Blood fed: number of mosquitoes
Protocol: as §1, §7, §6, §3, §4

[11] = system: Anopheles coluzzii VK7 lab strain; test: WHOPES tunnel test with live guinea pig baits, Burkina Faso (B17); conditions: Table B17; for Blood fed: number of mosquitoes
Protocol: as §1, §7, §6, §3, §4

[12] = Table B12, Deltamethrin 5 mg/m2

CC1(C)[C@H](C(=O)O[C@H](C#N)c2cccc(Oc3ccccc3)c2)[C@@H]1C=C(Br)Br [Deltamethrin]
% 1 hour KD [1, 12]: 0%
% Blood fed [1, 12]: 0%

N#CCNC(=O)c1cnccc1C(F)(F)F [Flonicamid]
24 hour % mort [2]: 0%
48 hour % mort [2]: 0%
% 1 hour KD [2]: 0%

FC(F)(F)c1ccncc1-c1noc(-c2cccc(Cl)c2)n1 [Compound 1.1]
pest or weed control at 0.2 ppm ([3]; Rate 0.2 PPM): 40%
pest or weed control at 2 ppm ([3]; Rate 2 PPM): 100%
pest or weed control at 20 ppm ([3]; Rate 20 PPM): 100%
pest or weed control at 200 ppm ([3]; Rate 200 PPM): 100%
pest or weed control at 0.2 ppm ([4]; Rate 0.2 PPM): 100%
pest or weed control at 2 ppm ([4]; Rate 2 PPM): 100%
pest or weed control at 20 ppm ([4]; Rate 20 PPM): 100%
pest or weed control at 200 ppm ([4]; Rate 200 PPM): 100%

CCN(CC)c1nc(C)cc(OP(=S)(OC)OC)n1 [pirimiphos-methyl]
knockdown after 1 hour ([5]; Table B10, Rate 0.0625 ppm): 0.0
knockdown after 1 hour ([5]; Table B10, Rate 0.125 ppm): 0.0

NC(=O)c1cnccc1C(F)(F)F [Compound 1.3]
% Blood fed ([1]; Table B11, treated net, Rate 10 mg/m2): 3%
% Blood fed ([6]; Compound (1.3) 25 mg/m2): 0.3%
% Blood fed ([7]; 50 mg/m2): 24.5%
% Blood fed ([7]; 200 mg/m2): 3.3%
Blood fed ([7]; 50 mg/m2): 66
Blood fed ([7]; 200 mg/m2): 10
% Blood fed ([8]; 50 mg/m2): 1.5%
% Blood fed ([8]; 200 mg/m2): 0.3%
Blood fed ([8]; 50 mg/m2): 5
Blood fed ([8]; 200 mg/m2): 1
% Blood fed ([9]; 50 mg/m2): 1.3%
% Blood fed ([9]; 200 mg/m2): 1.8%
Blood fed ([9]; 50 mg/m2): 4
Blood fed ([9]; 200 mg/m2): 6
% Blood fed ([10]; 50 mg/m2): 25.0%
% Blood fed ([10]; 200 mg/m2): 23.1%
Blood fed ([10]; 50 mg/m2): 70
Blood fed ([10]; 200 mg/m2): 74
% Blood fed ([11]; 50 mg/m2): 3.3%
% Blood fed ([11]; 200 mg/m2): 1.5%
Blood fed ([11]; 50 mg/m2): 10
Blood fed ([11]; 200 mg/m2): 6

COC(=O)N(C(=O)N1CO[C@@]2(C(=O)OC)Cc3cc(Cl)ccc3C2=N1)c1ccc(OC(F)(F)F)cc1 [Indoxacarb]
% 24 hour mortality ([1]; Table B14, Indoxacarb 20 mg/m2): 7.6%
% Blood fed ([6]; Indoxacarb 200 mg/m2): 4.4%
24 hr mort ([5]; Rate 12.5 ppm): 0.0
48 hr mort ([5]; Rate 12.5 ppm): 0.0
24 hr mort ([5]; Rate 25 ppm): 0.0
48 hr mort ([5]; Rate 25 ppm): 0.0
24 hr mort ([5]; Rate 50 ppm): 0.0
48 hr mort ([5]; Rate 50 ppm): 0.0
24 hr mort ([5]; Rate 100 ppm): 0.0
48 hr mort ([5]; Rate 100 ppm): 0.0
KD ([5]; Rate 12.5 ppm): 0.0
KD ([5]; Rate 25 ppm): 0.0
KD ([5]; Rate 50 ppm): 0.0
KD ([5]; Rate 100 ppm): 0.0
knockdown after 1 hour ([5]; Table B7, Rate 25 ppm): 0
knockdown after 1 hour ([5]; Table B7, Rate 50 ppm): 0
knockdown after 1 hour ([5]; Table B7, Rate 100 ppm): 0
knockdown after 1 hour ([5]; Table B7, Rate 200 ppm): 0
